Conditions: method of Shin Jikken Kagaku Koza, Kihon Sosa 1

Row | Structure (SMILES) | solubility in water at 25°C [% by weight]
1 | C=C(C)C(=O)OCCCC [butyl methacrylate] | 0.03
2 | C=Cc1ccccc1 [styrene] | 0.03

From patent publication EP0615158A1, “A silver halide photographic light-sensitive material” (KONICA CORPORATION, priority 1993, dated 1994)
